# Data taken from ChEMBL document CHEMBL1151339, “Antitumor agents from bohemic acid complex, III. The isolation of marcellomycin, musettamycin, rudolphomycin, mimimycin, collinemycin, alcindoromycin, and bohemamine” (J Nat Prod, 1980).
# Tests used:
# Escherichia coli [1] = assay: Antibacterial activity against Escherichia coli A15119 by 2-fold tube dilution method; type: functional
# Proteus mirabilis = assay: Antibacterial activity against Proteus mirabilis A-9900 by 2-fold tube dilution method; type: functional
# Mus musculus [2] = assay: Toxicity in BDF1 mouse xenografted with mouse L1210 cells assessed as survival at 25.6 mg/kg, ip after 5 days; type: organism-based; parameters: dose 25.6 mg/kg, route intraperitoneal; details: in vivo, 120 h
# Candida albicans [3] = assay: Antifungal activity against Candida albicans A15050 by 2-fold tube dilution method; type: functional
# Streptococcus pyogenes = assay: Antibacterial activity against Streptococcus pyogenes A-9604 by 2-fold tube dilution method; type: functional
# L1210 [4] = assay: Antitumor activity against mouse L1210 cells xenografted in BDF1 mouse at 3.2 mg/kg, ip relative to control; type: functional; details: route intraperitoneal
# Enterobacter cloacae = assay: Antibacterial activity against Enterobacter cloacae A-9659 by 2-fold tube dilution method; type: functional
# Candida albicans [5] = assay: Antifungal activity against Candida albicans A15049 by 2-fold tube dilution method; type: functional
# [6] = system: Trichophyton mentagrophytes; assay: Antifungal activity against Trichophyton mentagrophytes A-9870 by 2-fold tube dilution method; type: functional
# L1210 [7] = assay: Antitumor activity against mouse L1210 cells xenografted in BDF1 mouse assessed as median survival time at 6.4 mg/kg, ip; type: functional; details: route intraperitoneal
# L1210 [8] = assay: Antitumor activity against mouse L1210 cells xenografted in BDF1 mouse at 6.4 mg/kg, ip relative to control; type: functional; details: route intraperitoneal
# Mus musculus [9] = assay: Toxicity in BDF1 mouse xenografted with mouse L1210 cells assessed as survival at 51.2 mg/kg, ip after 5 days; type: organism-based; parameters: dose 51.2 mg/kg, route intraperitoneal; details: in vivo, 120 h
# L1210 [10] = assay: Antitumor activity against mouse L1210 cells xenografted in BDF1 mouse assessed as change in tumor average weight at 12.8 mg/kg, ip; type: functional; details: route intraperitoneal
# L1210 [11] = assay: Antitumor activity against mouse L1210 cells xenografted in BDF1 mouse assessed as change in tumor average weight at 6.4 mg/kg, ip; type: functional; details: route intraperitoneal
# L1210 [12] = assay: Antitumor activity against mouse L1210 cells xenografted in BDF1 mouse assessed as median survival time at 1.6 mg/kg, ip; type: functional; details: route intraperitoneal
# Candida albicans [13] = assay: Antifungal activity against Candida albicans A-9540 by 2-fold tube dilution method; type: functional
# Proteus vulgaris = assay: Antibacterial activity against Proteus vulgaris A21559 by 2-fold tube dilution method; type: functional
# Mus musculus [14] = assay: Toxicity in BDF1 mouse xenografted with mouse L1210 cells assessed as survival at 6.4 mg/kg, ip after 5 days; type: organism-based; parameters: dose 6.4 mg/kg, route intraperitoneal; details: in vivo, 120 h
# L1210 [15] = assay: Antitumor activity against mouse L1210 cells xenografted in BDF1 mouse at 51.2 mg/kg, ip relative to control; type: functional; details: route intraperitoneal
# L1210 [16] = assay: Antitumor activity against mouse L1210 cells xenografted in BDF1 mouse at 25.6 mg/kg, ip relative to control; type: functional; details: route intraperitoneal
# L1210 [17] = assay: Antitumor activity against mouse L1210 cells xenografted in BDF1 mouse assessed as change in tumor average weight at 25.6 mg/kg, ip; type: functional; details: route intraperitoneal
# L1210 [18] = assay: Antitumor activity against mouse L1210 cells xenografted in BDF1 mouse assessed as median survival time at 3.2 mg/kg, ip; type: functional; details: route intraperitoneal
# L1210 [19] = assay: Antitumor activity against mouse L1210 cells xenografted in BDF1 mouse assessed as median survival time at 25.6 mg/kg, ip; type: functional; details: route intraperitoneal
# Staphylococcus = assay: Antibacterial activity against penicillin resistant Staphylococcus A-9606 by 2-fold tube dilution method; type: functional
# Enterococcus faecalis = assay: Antibacterial activity against Streptococcus faecalis A20688 by 2-fold tube dilution method; type: functional
# Mus musculus [20] = assay: Toxicity in BDF1 mouse xenografted with mouse L1210 cells assessed as survival at 1.6 mg/kg, ip after 5 days; type: organism-based; parameters: dose 1.6 mg/kg, route intraperitoneal; details: in vivo, 120 h
# Streptococcus pneumoniae = assay: Antibacterial activity against Streptococcus pneumoniae A-9585 by 2-fold tube dilution method; type: functional
# L1210 [21] = assay: Antitumor activity against mouse L1210 cells xenografted in BDF1 mouse at 1.6 mg/kg, ip relative to control; type: functional; details: route intraperitoneal
# Staphylococcus aureus = assay: Antibacterial activity against Staphylococcus aureus A-9497 by 2-fold tube dilution method; type: functional
# Serratia marcescens = assay: Antibacterial activity against Serratia marcescens A20019 by 2-fold tube dilution method; type: functional
# Mus musculus [22] = assay: Toxicity in BDF1 mouse xenografted with mouse L1210 cells assessed as survival at 3.2 mg/kg, ip after 5 days; type: organism-based; parameters: dose 3.2 mg/kg, route intraperitoneal; details: in vivo, 120 h
# Pseudomonas aeruginosa = assay: Antibacterial activity against Pseudomonas aeruginosa A-9843A by 2-fold tube dilution method; type: functional
# Mus musculus [23] = assay: Toxicity in BDF1 mouse xenografted with mouse L1210 cells assessed as survival at 12.8 mg/kg, ip after 5 days; type: organism-based; parameters: dose 12.8 mg/kg, route intraperitoneal; details: in vivo, 120 h
# L1210 [24] = assay: Antitumor activity against mouse L1210 cells xenografted in BDF1 mouse assessed as change in tumor average weight at 51.2 mg/kg, ip; type: functional; details: route intraperitoneal
# L1210 [25] = assay: Antitumor activity against mouse L1210 cells xenografted in BDF1 mouse assessed as median survival time at 12.8 mg/kg, ip; type: functional; details: route intraperitoneal
# L1210 [26] = assay: Antitumor activity against mouse L1210 cells xenografted in BDF1 mouse at 12.8 mg/kg, ip relative to control; type: functional; details: route intraperitoneal
# Escherichia coli [27] = assay: Antibacterial activity against Escherichia coli A20341-1 by 2-fold tube dilution method; type: functional
# Pichia kudriavzevii = assay: Antifungal activity against Candida krusei A15052 by 2-fold tube dilution method; type: functional
# L1210 [28] = assay: Antitumor activity against mouse L1210 cells xenografted in BDF1 mouse assessed as change in tumor average weight at 3.2 mg/kg, ip; type: functional; details: route intraperitoneal
# L1210 [29] = assay: Antitumor activity against mouse L1210 cells xenografted in BDF1 mouse assessed as change in tumor average weight at 1.6 mg/kg, ip; type: functional; details: route intraperitoneal
# L1210 [30] = assay: Antitumor activity against mouse L1210 cells xenografted in BDF1 mouse assessed as median survival time at 51.2 mg/kg, ip; type: functional; details: route intraperitoneal
# Microsporum canis = assay: Antifungal activity against Microsporum canis A-9872 by 2-fold tube dilution method; type: functional
# Klebsiella pneumoniae = assay: Antibacterial activity against Klebsiella pneumoniae A15130 by 2-fold tube dilution method; type: functional
# Candida tropicalis = assay: Antifungal activity against Candida tropicalis A15051 by 2-fold tube dilution method; type: functional
smiles,measurement,setting,value
CC[C@@]1(O)C[C@H](O[C@H]2C[C@H](NC)[C@H](O[C@H]3C[C@H](O)[C@H](O[C@@H]4C[C@H](O)[C@H](O)[C@H](C)O4)[C@H](C)O3)[C@@H](C)O2)c2c(cc3c(c2O)C(=O)c2c(O)ccc(O)c2C3=O)[C@H]1C(=O)OC [ALCINDOROMYCIN],MIC,Escherichia coli [1],> 125 µg/mL
same,MIC,Proteus mirabilis,> 125 µg/mL
same,Activity,Mus musculus [2],Non-toxic
same,MIC,Candida albicans [3],> 16 µg/mL
same,MIC,Streptococcus pyogenes,2 µg/mL
same,T/C,L1210 [4],113%
same,MIC,Enterobacter cloacae,> 125 µg/mL
same,MIC,Candida albicans [5],> 16 µg/mL
same,MIC,[6],> 16 µg/mL
same,Activity,L1210 [7],8 days
same,T/C,L1210 [8],107%
same,Activity,Mus musculus [9],Non-toxic
same,Activity,L1210 [10],-0.8 g
same,Activity,L1210 [11],0.6 g
same,Activity,L1210 [12],7 days
same,MIC,Candida albicans [13],> 16 µg/mL
same,MIC,Proteus vulgaris,> 125 µg/mL
same,Activity,Mus musculus [14],Non-toxic
same,T/C,L1210 [15],147%
same,T/C,L1210 [16],133%
same,Activity,L1210 [17],-1.9 g
same,Activity,L1210 [18],8.5 days
same,Activity,L1210 [19],10 days
same,MIC,Staphylococcus,63 µg/mL
same,MIC,Enterococcus faecalis,8 µg/mL
same,Activity,Mus musculus [20],Non-toxic
same,MIC,Streptococcus pneumoniae,1 µg/mL
same,T/C,L1210 [21],93%
same,MIC,Staphylococcus aureus,8 µg/mL
same,MIC,Serratia marcescens,> 125 µg/mL
same,Activity,Mus musculus [22],Non-toxic
same,MIC,Pseudomonas aeruginosa,> 125 µg/mL
same,Activity,Mus musculus [23],Non-toxic
same,Activity,L1210 [24],-2.7 g
same,Activity,L1210 [25],9.5 days
same,T/C,L1210 [26],128%
same,MIC,Escherichia coli [27],> 125 µg/mL
same,MIC,Pichia kudriavzevii,> 16 µg/mL
same,Activity,L1210 [28],0.5 g
same,Activity,L1210 [29],1.3 g
same,Activity,L1210 [30],11 days
same,MIC,Microsporum canis,> 16 µg/mL
same,MIC,Klebsiella pneumoniae,> 125 µg/mL
same,MIC,Candida tropicalis,> 16 µg/mL
CC[C@@]1(O)C[C@H](O[C@H]2C[C@H](N(C)C)[C@H](O[C@H]3C[C@H](O)[C@H](O)[C@@H](C)O3)[C@@H](C)O2)c2c(cc3c(c2O)C(=O)c2c(O)ccc(O)c2C3=O)[C@H]1C(=O)OC [COLLINEMYCIN],MIC,Escherichia coli [1],> 125 µg/mL
same,MIC,Proteus mirabilis,> 125 µg/mL
same,MIC,Candida albicans [3],> 16 µg/mL
same,MIC,Streptococcus pyogenes,8 µg/mL
same,T/C,L1210 [4],107%
same,MIC,Enterobacter cloacae,> 125 µg/mL
same,MIC,Candida albicans [5],> 16 µg/mL
same,MIC,[6],> 16 µg/mL
same,Activity,L1210 [7],8 days
same,T/C,L1210 [8],107%
same,Activity,L1210 [10],-2.3 g
same,Activity,L1210 [11],-1.2 g
same,Activity,L1210 [12],8 days
same,MIC,Candida albicans [13],> 16 µg/mL
same,MIC,Proteus vulgaris,> 125 µg/mL
same,Activity,Mus musculus [14],Non-toxic
same,T/C,L1210 [15],147%
same,T/C,L1210 [16],147%
same,Activity,L1210 [17],-4.2 g
same,Activity,L1210 [18],8 days
same,Activity,L1210 [19],11 days
same,MIC,Staphylococcus,63 µg/mL
same,MIC,Enterococcus faecalis,63 µg/mL
same,Activity,Mus musculus [20],Non-toxic
same,MIC,Streptococcus pneumoniae,2 µg/mL
same,T/C,L1210 [21],107%
same,MIC,Staphylococcus aureus,16 µg/mL
same,MIC,Serratia marcescens,> 125 µg/mL
same,Activity,Mus musculus [22],Non-toxic
same,MIC,Pseudomonas aeruginosa,> 125 µg/mL
same,Activity,Mus musculus [23],Non-toxic
same,Activity,L1210 [24],-2.5 g
same,Activity,L1210 [25],10 days
same,T/C,L1210 [26],133%
same,MIC,Escherichia coli [27],> 125 µg/mL
same,MIC,Pichia kudriavzevii,> 16 µg/mL
same,Activity,L1210 [28],1.3 g
same,Activity,L1210 [29],-0.3 g
same,Activity,L1210 [30],11 days
same,MIC,Microsporum canis,> 16 µg/mL
same,MIC,Klebsiella pneumoniae,> 125 µg/mL
same,MIC,Candida tropicalis,> 16 µg/mL
CC[C@@]1(O)C[C@H](O[C@H]2C[C@H](N(C)C)[C@H](O[C@H]3C[C@H](O)[C@H](O[C@@H]4C[C@H](O)[C@H](O)[C@H](C)O4)[C@H](C)O3)[C@@H](C)O2)c2c(cc3c(c2O)C(=O)c2c(O)ccc(O)c2C3=O)[C@@H]1C(=O)OC [MIMIMYCIN],MIC,Escherichia coli [1],> 125 µg/mL
same,MIC,Proteus mirabilis,> 125 µg/mL
same,MIC,Candida albicans [3],> 16 µg/mL
same,MIC,Streptococcus pyogenes,2 µg/mL
same,T/C,L1210 [4],107%
same,MIC,Enterobacter cloacae,> 125 µg/mL
same,MIC,Candida albicans [5],> 16 µg/mL
same,MIC,[6],> 16 µg/mL
same,Activity,L1210 [7],9 days
same,T/C,L1210 [8],120%
same,Activity,L1210 [10],-0.3 g
same,Activity,L1210 [11],-1.3 g
same,Activity,L1210 [12],7.5 days
same,MIC,Candida albicans [13],> 16 µg/mL
same,MIC,Proteus vulgaris,> 125 µg/mL
same,Activity,Mus musculus [14],Non-toxic
same,T/C,L1210 [15],133%
same,T/C,L1210 [16],107%
same,Activity,L1210 [17],0.1 g
same,Activity,L1210 [18],8 days
same,Activity,L1210 [19],8 days
same,MIC,Staphylococcus,63 µg/mL
same,MIC,Enterococcus faecalis,4 µg/mL
same,Activity,Mus musculus [20],Non-toxic
same,MIC,Streptococcus pneumoniae,1 µg/mL
same,T/C,L1210 [21],100%
same,MIC,Staphylococcus aureus,8 µg/mL
same,MIC,Serratia marcescens,> 125 µg/mL
same,Activity,Mus musculus [22],Non-toxic
same,MIC,Pseudomonas aeruginosa,> 125 µg/mL
same,Activity,Mus musculus [23],Non-toxic
same,Activity,L1210 [24],-3.2 g
same,Activity,L1210 [25],8.5 days
same,T/C,L1210 [26],113%
same,MIC,Escherichia coli [27],> 125 µg/mL
same,MIC,Pichia kudriavzevii,> 16 µg/mL
same,Activity,L1210 [28],1.3 g
same,Activity,L1210 [29],0.5 g
same,Activity,L1210 [30],10 days
same,MIC,Microsporum canis,> 16 µg/mL
same,MIC,Klebsiella pneumoniae,> 125 µg/mL
same,MIC,Candida tropicalis,> 16 µg/mL
